According to paper PMC6382696, “Drug Repurposing: The Anthelmintics Niclosamide and Nitazoxanide Are Potent TMEM16A Antagonists That Fully Bronchodilate Airways” (Frontiers in Pharmacology, 2019):

Columns and labels:
human bronchial rings = test: Wire myograph bronchodilation of histamine pre-contracted human bronchial rings (Biopta)
Description: Details of bronchodilator studies shown in Figure 5H, 6 and Supplementary Figure 40 are provided below as part of the end assay report on Study CUR011 by Lee Christie (Biopta). Donors with any of the following conditions were excluded from the study: asthma, COPD, emphysema, lung cancer, cystic fibrosis, pulmonary fibrosis, pulmonary hypertension, pneumonia. Donors were also excluded if they had smoked in the past 12 months. Non-transplantable lung tissue was acquired from organ donors post mortem. Any macroscopically diseased/necrotic tissue was rejected. […] Human airway rings were set up under isometric conditions on a wire myograph in order to examine the influence of the test articles on bronchodilation. In order to assess tissue viability, the airways were challenged with carbachol (10 μM) and then isoprenaline (10 μM) to assess their constriction and relaxation responses, respectively. […] Viable airways were pre-constricted with histamine (10 μM), then exposed to one of the following cumulative concentration response curves (CCRCs): positive control, vehicle (water, volume matched to positive control), test article, vehicle (DMSO concentration matched to test articles). At the end of each CCRC, theophylline (2.2 mM) was added to induce maximal relaxation of the tissue. […] Airways were re-tensioned to 1.0 – 1.5 g if the tension had dropped below 1.0 g during the first 30 min of equilibration. (b) Airways were exposed to carbachol (bath concentration 10 μM) in order to measure their contractile responses and then isoprenaline (10 μM) in order to assess their relaxation. Airways were washed out and allowed to return to baseline. (c) Airways were pre-constricted with histamine (10 μM) before conducting a CCRC to the test article, the positive control (isoprenaline), test article vehicle or positive control vehicle.

[1] = test system: Wnt/β-catenin transcription; test: Wnt/β-catenin transcription TOPFlash reporter assay; type: cell-based; conditions: Wnt TopFlash IC50 over TMEM16A eYFP IC50
[2] = test system: Wnt/β-catenin transcription; conditions: ref Mook et al. (2015); read-out: Mook et al. Wnt/β-catenin TopFlash (IC50); cited from earlier work
hTMEM16A (abc) = target: T1, hTMEM16A (abc) (Homo sapiens, UniProt Q5XXA6, DEL476-501); test: medchem TMEM16A halide-sensitive YFP assay, 22-point dose-response; type: cell-based; design: expressed in transfected cells; conditions: supplement; iodide as permeant anion, maximum concentration 55.6; read-out: TMEM16A eYFP Assay IC50
T1 sequence (Q5XXA6 with tags, fused parts or gaps isoform Q5XXA6-5 DEL539-564): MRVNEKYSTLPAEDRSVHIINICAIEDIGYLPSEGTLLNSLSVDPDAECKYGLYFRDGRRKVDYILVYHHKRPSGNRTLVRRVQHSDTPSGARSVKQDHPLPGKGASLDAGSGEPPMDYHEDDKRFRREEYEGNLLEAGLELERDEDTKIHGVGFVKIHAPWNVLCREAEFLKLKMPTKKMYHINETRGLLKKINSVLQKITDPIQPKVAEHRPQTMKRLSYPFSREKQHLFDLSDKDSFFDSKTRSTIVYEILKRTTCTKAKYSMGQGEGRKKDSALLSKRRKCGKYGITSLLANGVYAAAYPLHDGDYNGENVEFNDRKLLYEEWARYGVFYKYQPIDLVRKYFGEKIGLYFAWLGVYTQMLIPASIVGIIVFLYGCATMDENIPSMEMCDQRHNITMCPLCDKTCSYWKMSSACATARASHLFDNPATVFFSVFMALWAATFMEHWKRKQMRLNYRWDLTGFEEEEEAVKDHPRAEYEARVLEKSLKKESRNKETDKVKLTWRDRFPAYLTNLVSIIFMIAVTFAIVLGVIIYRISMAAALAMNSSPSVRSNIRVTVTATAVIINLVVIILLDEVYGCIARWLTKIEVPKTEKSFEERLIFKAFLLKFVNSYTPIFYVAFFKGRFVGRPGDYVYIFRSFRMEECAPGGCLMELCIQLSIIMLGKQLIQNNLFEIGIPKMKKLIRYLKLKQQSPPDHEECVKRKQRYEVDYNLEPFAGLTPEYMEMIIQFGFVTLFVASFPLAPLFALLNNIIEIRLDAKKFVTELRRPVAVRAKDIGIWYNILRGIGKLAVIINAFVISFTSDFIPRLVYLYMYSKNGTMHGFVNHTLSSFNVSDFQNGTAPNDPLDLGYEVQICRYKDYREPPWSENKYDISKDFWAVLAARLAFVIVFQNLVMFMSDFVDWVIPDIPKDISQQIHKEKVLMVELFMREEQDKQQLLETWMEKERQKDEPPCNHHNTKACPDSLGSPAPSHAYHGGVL
Protocol: The TMEM16A HEK293T eYFP (H149Q, I153L) stable cell line for medchem support was generated by transfecting 10 μg of linearized hTMEM16A(abc) DNA constructs into HEK293T eYFP (H149Q,I153L) stable cells. The transfected cells were cultured under 200 μg/ml of hygromycin B selection for 20 days and the stable pool was single cell seeded in 96 well plate and duplicated plate were made after single cell clones were formed. YFP function assay were performed on duplicated plate and clones producing higher changes in fluorescence from the YFP assay were chosen for further expansion to form a stable cell line.
Plates were incubated for 24 h at 37°C with 5% CO2. On the assay day, medium was removed and replaced with 20 μl/well of assay buffer (Hank’s Balanced Salt Solution with 10 mM HEPES pH 7.4), 10 μl/well of 40x diluted compounds was added to assay plate and it was incubated at room temperature for 30 min, after which baseline fluorescence was read in the FLIPR instrument for 10 s. Then, 5 μl/well of a 3x trigger solution (24 mM iodide, 3 μM ionomycin in assay buffer) was added and the fluorescence kinetic trace was recorded for 2 min.

human CFTR = target: T2, human CFTR (Homo sapiens, UniProt P13569); test: IonWorks Barracuda electrophysiology, CFTR chloride current in CHO cells; type: cell-based; conditions: 10 µM compound, CHO CFTR
T2 construct: host or cells: CHO
Description: HEK293 cells stably expressing the human TMEM16A (abc) variant and CHO cells expressing the human CFTR gene were from ChanTest. The IonWorks Barracuda (IWB) procedure and data provided are from outsourced studies performed at ChanTest (Charles River Discovery, Cleveland, OH, United States) who were blinded as to the identity of the test articles or compounds provided by Amgen.
For measuring compound effects on CFTR chloride currents, compounds were serially diluted in HEPES-buffered physiological saline to 2X final concentration allowing for an 8-point dose-response analysis. Test article concentrations were applied to naïve cells (n = 4, where n = the number of replicate wells/concentration) via steel needles, where each application will consist of addition of 20 μl of 2X concentrated test article solution to a final 40 μl volume in the extracellular well of the Population Patch ClampTM (PPC) planar electrode. After mixing (three times), duration of exposure to compound is at least 5 min. Final solutions contain 0.3% DMSO. […] The current is measured using a pulse pattern consisting of a voltage step to +60 mV, 100 ms duration; voltage ramp from +60 to −120 mV, 1000 ms; step to −120 mV, 200 ms; and step to 0 mV, 200 ms; from holding potential, −30 mV. Current amplitudes were measured at the voltage step to 0 mV. The recording procedure was as follows: extracellular buffer is loaded into the PPC plate wells (11 μl per well). Cell suspension was pipetted into the wells (9 μl per well) of the PPC planar electrode. After establishment of a whole-cell configuration via amphotericin patch perforation similar to that described earlier, membrane currents were recorded using the patch clamp amplifier in the IonWorks^TM Barracuda system. Two recordings (scans) were then performed, one scan before and a second scan 5 min after test article (TA) application. […] Data acquisition and analyses were performed using the IonWorks Barracuda^TM system operation software (version 2.0.2). The decrease in current amplitude after test article application was used to calculate the percent block relative to control. […] Inhibition effect was calculated as: % Inhibition = (1 – ITA/IBaseline) × 100%, where IBaseline and ITA were the currents measured in control (before addition of a test article) and in the presence of a test article, respectively.

TMEM16A (acd) = target: T3, TMEM16A (acd) (Homo sapiens, UniProt Q5XXA6); test: QPatch whole-cell electrophysiology, HEK293 TMEM16A (acd); type: cell-based; conditions: supplement; 170 nM free intracellular calcium; read-out: IC50 for blocking the TMEM16A outward current, QPatch
T3 sequence (Q5XXA6 1-986): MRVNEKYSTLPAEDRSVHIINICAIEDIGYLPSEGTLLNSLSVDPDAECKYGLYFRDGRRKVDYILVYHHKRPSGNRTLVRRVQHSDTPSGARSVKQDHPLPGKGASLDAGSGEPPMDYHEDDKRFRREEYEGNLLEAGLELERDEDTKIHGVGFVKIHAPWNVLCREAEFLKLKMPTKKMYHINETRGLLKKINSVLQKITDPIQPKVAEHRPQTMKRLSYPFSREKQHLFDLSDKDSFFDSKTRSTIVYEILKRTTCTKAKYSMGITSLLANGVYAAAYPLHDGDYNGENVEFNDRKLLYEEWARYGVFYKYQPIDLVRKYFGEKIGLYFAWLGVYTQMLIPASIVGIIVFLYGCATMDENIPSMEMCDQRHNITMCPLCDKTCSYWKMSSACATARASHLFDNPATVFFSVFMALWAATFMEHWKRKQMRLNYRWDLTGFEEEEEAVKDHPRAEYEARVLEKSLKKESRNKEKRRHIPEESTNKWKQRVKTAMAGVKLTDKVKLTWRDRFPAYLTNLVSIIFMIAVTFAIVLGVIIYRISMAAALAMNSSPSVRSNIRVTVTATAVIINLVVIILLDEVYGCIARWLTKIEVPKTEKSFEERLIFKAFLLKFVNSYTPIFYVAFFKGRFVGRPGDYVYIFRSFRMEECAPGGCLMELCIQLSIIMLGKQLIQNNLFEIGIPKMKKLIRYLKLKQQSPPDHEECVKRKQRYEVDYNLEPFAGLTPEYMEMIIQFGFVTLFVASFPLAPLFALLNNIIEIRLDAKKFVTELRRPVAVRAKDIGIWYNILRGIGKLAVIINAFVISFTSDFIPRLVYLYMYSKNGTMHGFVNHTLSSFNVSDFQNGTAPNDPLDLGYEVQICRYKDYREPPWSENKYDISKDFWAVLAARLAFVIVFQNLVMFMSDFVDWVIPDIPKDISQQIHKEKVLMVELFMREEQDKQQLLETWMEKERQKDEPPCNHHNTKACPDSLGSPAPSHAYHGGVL
Description: HEK293 cells stably expressing the TMEM16A (acd) variant were purchased from SB Drug Discovery. The HEK293 TMEM16A (abc) stable cell line was from ChanTest and COLO-205 cells were purchased from ATCC. The same standard buffers and recording conditions listed below were used for QPatch studies on all three cell lines.
Recording Solutions: were made weekly as below and stored at room temperature until used. It is recommended not to add ATP to internal solution until immediately before using on the QPatch. The external buffer (in mM) was 140 NaCl, 4 KCl, 2 CaCl2, 1 MgCl2, 10 HEPES, 10 Glucose, pH7.4, while the internal buffer (in mM) was 110 CsCl, 20 TEA-Cl, 5.374 CaCl2, 1.75 MgCl2, 10 EGTA, 10 HEPES, 4 Na2ATP, pH 7.2.
Once established in whole-cell configuration, cells were clamped to a holding potential (Vhold) of 0 mV on 48 well single hole patch plate. A standardized IV protocol was used to elicit ionic current through the TMEM16A chloride channel at 20 s intervals. Steady-state voltage pulses were from −100 mV to +100 mV in +20 mV steps for a duration of 500 ms. After each pulse the voltage was returned to −100 mV for 50 ms to obtain tail currents, and then returned to the holding potential of 0 mV until the beginning of the next sweep. […] This ensures a minimum of 60 s per concentration incubation before measuring current block. Currents were acquired at 10 kHz and filtered at 2 kHz, leak subtraction and Rseries were disabled. A 1 MΩ minimum resistance was set because cells are held in an open channel state and therefore resistance is low.
A cumulative concentration response was measured where each cell is exposed to five concentrations of test article with a dilution factor of 1:5 (e.g., 0.048, 0.24, 1.2, 6, and 30 μM). Cells were recorded for ∼60 s per solution/compound addition. Initially, external solution is applied twice to allow currents to stabilize. Then vehicle (from the saline reservoir) is added twice to monitor any effect 0.3% DMSO might have on currents. This leads directly into the concentration runs by applying Concentration 1 (single addition) for 1 min. Concentration 2 is then applied for the subsequent minute, etc. Recovery/washout was monitored for a final minute with a final external solution addition.
[…] […] Each cell’s current magnitude was then normalized to itself at the initial 0.3% vehicle control period prior to compound application. This step is to account for differences in current size for each cell. Normalized responses to test article were plotted against their concentrations to reveal a concentration-inhibition plot.
A Normalized Group Hill fit was then performed on the plotted results to yield a pooled IC50 value, reconstructed from a minimum of two cells/concentration. The baseline response as well as the full response were constrained to 1 and 0, respectively.

T2 sequence (P13569 whole entry): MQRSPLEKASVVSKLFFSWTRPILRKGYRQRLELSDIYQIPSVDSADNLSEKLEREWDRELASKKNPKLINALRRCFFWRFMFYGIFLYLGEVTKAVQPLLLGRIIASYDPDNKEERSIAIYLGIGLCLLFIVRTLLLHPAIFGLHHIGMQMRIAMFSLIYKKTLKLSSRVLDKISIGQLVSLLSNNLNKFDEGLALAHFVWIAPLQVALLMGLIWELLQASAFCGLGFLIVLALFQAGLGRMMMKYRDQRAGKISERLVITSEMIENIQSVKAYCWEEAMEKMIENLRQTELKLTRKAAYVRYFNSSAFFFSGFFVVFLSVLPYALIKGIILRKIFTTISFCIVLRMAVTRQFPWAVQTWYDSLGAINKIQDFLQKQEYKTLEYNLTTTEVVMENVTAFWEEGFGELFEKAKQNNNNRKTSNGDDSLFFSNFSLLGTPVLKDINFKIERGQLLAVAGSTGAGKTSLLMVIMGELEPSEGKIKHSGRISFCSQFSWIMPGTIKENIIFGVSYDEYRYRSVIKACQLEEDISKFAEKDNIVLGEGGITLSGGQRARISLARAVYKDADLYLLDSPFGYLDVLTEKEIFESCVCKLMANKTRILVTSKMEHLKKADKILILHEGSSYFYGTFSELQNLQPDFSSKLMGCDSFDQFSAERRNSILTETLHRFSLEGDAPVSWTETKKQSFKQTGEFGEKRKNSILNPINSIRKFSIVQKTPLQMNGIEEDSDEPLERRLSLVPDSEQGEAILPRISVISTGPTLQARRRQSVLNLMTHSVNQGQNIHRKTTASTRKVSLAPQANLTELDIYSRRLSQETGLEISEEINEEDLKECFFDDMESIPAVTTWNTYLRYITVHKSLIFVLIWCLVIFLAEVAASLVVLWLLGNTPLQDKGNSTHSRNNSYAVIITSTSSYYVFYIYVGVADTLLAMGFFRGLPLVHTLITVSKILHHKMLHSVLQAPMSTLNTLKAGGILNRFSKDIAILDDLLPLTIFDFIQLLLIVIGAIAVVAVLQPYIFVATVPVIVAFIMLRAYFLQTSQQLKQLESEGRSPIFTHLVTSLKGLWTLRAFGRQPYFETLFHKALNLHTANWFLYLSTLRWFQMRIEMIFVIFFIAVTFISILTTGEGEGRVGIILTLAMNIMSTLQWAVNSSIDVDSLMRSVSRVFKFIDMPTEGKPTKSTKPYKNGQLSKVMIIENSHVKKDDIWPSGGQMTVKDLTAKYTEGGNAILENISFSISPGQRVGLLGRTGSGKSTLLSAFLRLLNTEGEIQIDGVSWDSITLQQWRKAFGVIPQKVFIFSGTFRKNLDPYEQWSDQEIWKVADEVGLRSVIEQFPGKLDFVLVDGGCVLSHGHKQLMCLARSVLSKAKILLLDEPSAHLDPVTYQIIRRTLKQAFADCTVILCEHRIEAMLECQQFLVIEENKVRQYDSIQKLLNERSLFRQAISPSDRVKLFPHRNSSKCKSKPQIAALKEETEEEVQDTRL

| Molecule | IC50 [2] [µM] | IC50 (hTMEM16A (abc)) [µM] | also measured |
| --- | --- | --- | --- |
| CC(C)(C)NCC(O)c1ccc(O)c(CO)c1 (centres unmarked) [Salbutamol, salbutamol] | – | – | EC50 (human bronchial rings; Homo sapiens, 10 μM histamine, read-out: EC50 bronchodilating histamine precontracted human airways): 0.119 µM; time to open airways (human bronchial rings; summary): < 7 min |
| CS(=O)(=O)c1ccc(NC(=O)c2cc(Cl)ccc2O)c(Cl)c1 [Cpd 8] | 7.66 | 4.72 | IC50 Ratio, Wnt/TMEM16A [1]: 1.62 |
| O=C(Nc1c(F)cccc1F)c1cc(Cl)ccc1O [Cpd 18] | > 12 | 13.4 | – |
| O=C(Nc1ccc(F)cc1F)c1cc(Cl)ccc1O [Cpd 17] | 4.02 | 0.31 | IC50 Ratio, Wnt/TMEM16A [1]: 12.97 |
| O=C(Nc1ccc(F)cc1)c1cc(Cl)ccc1O [Cpd 16] | 3.84 | 0.25 | IC50 Ratio, Wnt/TMEM16A [1]: 15.36 |
| O=C(Nc1c(Cl)cccc1Cl)c1cc(Cl)ccc1O [Cpd 15] | > 12 | – | – |
| Cc1ccc(-c2nnn(CC(=O)N(c3cccc(C(F)(F)F)c3)C(C(=O)NC(C)(C)C)c3cccs3)n2)cc1 (centres unmarked) [compound 3179204] | – | 0.334 | – |
| NCCNCCNC(=O)c1cc2ccccc2cc1O [compound 111758] | – | 0.091 ± 0.028 | – |
| CC1(C)C(O)C1C#Cc1ccccc1 (centres unmarked) [compound 598689] | – | 0.466 ± 0.101 | – |
| CCCn1c(SCC(=O)NCC(F)(F)F)nc2ccccc2c1=O [compound 2100101] | – | 3.33 | – |
| CFTRinh-172 | – | – | effect on CFTR chloride current (human CFTR): fully inhibited |
| O=C(Nc1ccccc1C(=O)Nc1nnc(C(F)(F)F)s1)c1ccccc1Cl [CID# 2806957] | – | – | IC50 (TMEM16A (acd)): 0.67 µM |
